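GI50 = concentration required for 50% inhibition of growth. The concentration for full growth arrest is given as TGI.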
Assays:
Assay in all cases: NCI tumour cell line growth inhibition, 384-well format
[1] = system: A498 renal
[2] = system: A549 NSCLC
[3] = system: ACHN renal
[4] = system: BT-549 breast
[5] = system: CAKI-1 renal
[6] = system: COLO 205 colon
[7] = system: DU-145 prostate
[8] = system: EKVX NSCLC
[9] = system: HCC-2998 colon
[10] = system: HCT-116 colon
[11] = system: HCT-15 colon
[12] = system: HL-60(TB) leukemia
[13] = system: HOP-62 NSCLC
[14] = system: HOP-92 NSCLC
[15] = system: HS 578T breast
[16] = system: HT29 colon
[17] = system: IGROV1 ovarian
[18] = system: KM12 colon
[19] = system: LOX IMVI melanoma
[20] = system: M14 melanoma
[21] = system: MALME-3M melanoma
[22] = system: MCF7 breast
[23] = system: MDA-MB-231 breast
[24] = system: MDA-MB-435 melanoma
[25] = system: MDA-MB-468 breast
[26] = system: MOLT-4 leukemia
[27] = system: NCI-H226 lung
[28] = system: NCI-H23 lung
[29] = system: NCI-H322M lung
[30] = system: NCI-H460 NSCLC
[31] = system: NCI-H522 lung
[32] = system: NCI/ADR-RES ovarian
[33] = system: OVCAR-3 ovarian
[34] = system: OVCAR-4 ovarian
[35] = system: OVCAR-5 ovarian
[36] = system: OVCAR-8 ovarian
[37] = system: PC-3 prostate
[38] = system: RPMI-8226 leukemia
[39] = system: RXF 393 renal
[40] = system: SF-268 CNS
[41] = system: SF-295 CNS
[42] = system: SF-539 CNS
[43] = system: SK-MEL-28 melanoma
[44] = system: SK-MEL-5 melanoma
[45] = system: SK-OV-3 ovarian
[46] = system: SN12C renal
[47] = system: SNB-19 CNS
[48] = system: SNB-75 CNS
[49] = system: SR leukemia
[50] = system: T-47D breast
[51] = system: TK-10 renal
[52] = system: U251 glioblastoma
[53] = system: UACC-257 melanoma
[54] = system: UACC-62 melanoma

O=C1Nc2ccc(CN3CCOC3=O)cc2/C1=C/c1cc(CN2CCOCC2)c[nH]1
GI50 [1]: > 100 µM | TGI [1]: > 100 µM | GI50 [2]: 49.7 µM | TGI [2]: > 100 µM | GI50 [3]: 77.9 µM | TGI [3]: > 100 µM | GI50 [4]: 24.5 µM | TGI [4]: 58.9 µM | GI50 [5]: 58.5 µM | TGI [5]: > 100 µM | GI50 [6]: 49.2 µM | TGI [6]: > 100 µM | GI50 [7]: 45.9 µM | TGI [7]: > 100 µM | GI50 [8]: 38.2 µM | TGI [8]: > 100 µM | GI50 [9]: 30.1 µM | TGI [9]: 68.1 µM | GI50 [10]: 41.2 µM | TGI [10]: > 100 µM | GI50 [11]: 27.9 µM | TGI [11]: 93.1 µM | GI50 [12]: 16.3 µM | TGI [12]: 30 µM | GI50 [13]: 31.6 µM | TGI [13]: 75.9 µM | GI50 [14]: > 100 µM | TGI [14]: > 100 µM | GI50 [15]: 64.6 µM | TGI [15]: > 100 µM | GI50 [16]: 30.4 µM | TGI [16]: > 100 µM | GI50 [17]: 43.4 µM | TGI [17]: > 100 µM | GI50 [18]: 5.29 µM | TGI [18]: > 100 µM | GI50 [19]: 28.7 µM | TGI [19]: 68.3 µM | GI50 [20]: 49 µM | TGI [20]: > 100 µM | GI50 [21]: > 100 µM | TGI [21]: > 100 µM | GI50 [22]: 33.1 µM | TGI [22]: > 100 µM | GI50 [23]: 58.8 µM | TGI [23]: > 100 µM | GI50 [24]: 25.5 µM | TGI [24]: 76.7 µM | GI50 [25]: 23 µM | TGI [25]: 85.1 µM | GI50 [26]: 20.5 µM | TGI [26]: 36.5 µM | GI50 [27]: 33.3 µM | TGI [27]: 83 µM | GI50 [28]: 25.2 µM | TGI [28]: > 100 µM | GI50 [29]: 43.7 µM | TGI [29]: > 100 µM | GI50 [30]: 19.6 µM | TGI [30]: 40 µM | GI50 [31]: 21.6 µM | TGI [31]: 55.2 µM | GI50 [32]: 30 µM | TGI [32]: 83.9 µM | GI50 [33]: 40.3 µM | TGI [33]: > 100 µM | GI50 [34]: 33.5 µM | TGI [34]: 93.3 µM | GI50 [35]: > 100 µM | TGI [35]: > 100 µM | GI50 [36]: 37.8 µM | TGI [36]: > 100 µM | GI50 [37]: 35.3 µM | TGI [37]: 98.1 µM | GI50 [38]: 18.2 µM | TGI [38]: 39.8 µM | GI50 [39]: 96.3 µM | TGI [39]: > 100 µM | GI50 [40]: 49.9 µM | TGI [40]: > 100 µM | GI50 [41]: 33.8 µM | TGI [41]: > 100 µM | GI50 [42]: 53.8 µM | TGI [42]: > 100 µM | GI50 [43]: 71.8 µM | TGI [43]: > 100 µM | GI50 [44]: 15.7 µM | TGI [44]: 30.8 µM | GI50 [45]: 43.5 µM | TGI [45]: > 100 µM | GI50 [46]: 27.1 µM | TGI [46]: > 100 µM | GI50 [47]: 63.3 µM | TGI [47]: > 100 µM | GI50 [48]: 86 µM | TGI [48]: > 100 µM | GI50 [49]: 14 µM | TGI [49]: 30.6 µM | GI50 [50]: 17.5 µM | TGI [50]: 44 µM | GI50 [51]: 43.3 µM | TGI [51]: > 100 µM | GI50 [52]: 42.2 µM | TGI [52]: > 100 µM | GI50 [53]: 35.6 µM | TGI [53]: > 100 µM | GI50 [54]: 45.1 µM | TGI [54]: > 100 µM

Source: PubChem BioAssay (NCI)
